Measurements as given in PubChem BioAssay AID1259407 (Chemical Carcinogenesis Research Information System (CCRIS), 2018).
The source made the active and inactive calls. How the calls were made is not given here.

System: CCRIS mutagenicity, Ames/micronucleus/aberration tests
Experiment: CCRIS mutagenicity studies
Conditions: Test System: AMES SALMONELLA TYPHIMURIUM
[1] = Strain/Indicator: TA98, Metabolic Activation: NONE, Method: PREINCUBATION
[2] = Strain/Indicator: TA98, Metabolic Activation: NONE, Method: STANDARD PLATE
[3] = Strain/Indicator: TA100, Metabolic Activation: NONE, Method: PREINCUBATION
[4] = Strain/Indicator: TA100, Metabolic Activation: NONE, Method: STANDARD PLATE
[5] = Strain/Indicator: TA1535, Metabolic Activation: NONE, Method: PREINCUBATION
[6] = Strain/Indicator: TA1535, Metabolic Activation: NONE, Method: STANDARD PLATE
[7] = Strain/Indicator: TA1537, Metabolic Activation: NONE, Method: PREINCUBATION
[8] = Strain/Indicator: TA1537, Metabolic Activation: NONE, Method: STANDARD PLATE

Question: With `CC(C)(C)S(=O)(=O)C[C@@H](Cc1ccccc1)C(=O)N[C@@H](Cc1cnc[nH]1)C(=O)N[C@@H](CC1CCCCC1)[C@@H](O)[C@@H](O)C1CC1` as the molecule, how does the mutagenic call (Strain/Indicator: TA97, Metabolic Activation: NONE, Method: PREINCUBATION) read?
Answer: inactive; negative

Question: What about the mutagenic call (Strain/Indicator: TA97, Metabolic Activation: NONE, Method: STANDARD PLATE) of the same molecule?
Answer: inactive; negative

Question: And the mutagenic call (Strain/Indicator: TA97, Metabolic Activation: RAT, LIVER, S-9, PHENOBARBITAL AND BETA-NAPHTHOFLAVONE, Method: PREINCUBATION)?
Answer: inactive; negative

Question: What about the mutagenic call (Strain/Indicator: TA97, Metabolic Activation: RAT, LIVER, S-9, PHENOBARBITAL AND BETA-NAPHTHOFLAVONE, Method: STANDARD PLATE) of the same molecule?
Answer: inactive; negative

Question: What about the mutagenic call [1] of the same molecule?
Answer: inactive; negative

Question: And the mutagenic call [2]?
Answer: inactive; negative

Question: And the mutagenic call (Strain/Indicator: TA98, Metabolic Activation: RAT, LIVER, S-9, PHENOBARBITAL AND BETA-NAPHTHOFLAVONE, Method: PREINCUBATION)?
Answer: inactive; negative

Question: What about the mutagenic call (Strain/Indicator: TA98, Metabolic Activation: RAT, LIVER, S-9, PHENOBARBITAL AND BETA-NAPHTHOFLAVONE, Method: STANDARD PLATE) of the same molecule?
Answer: inactive; negative

Question: What about the mutagenic call [3] of the same molecule?
Answer: inactive; negative

Question: And the mutagenic call [4]?
Answer: inactive; negative

Question: What about the mutagenic call (Strain/Indicator: TA100, Metabolic Activation: RAT, LIVER, S-9, PHENOBARBITAL AND BETA-NAPHTHOFLAVONE, Method: PREINCUBATION) of the same molecule?
Answer: inactive; negative

Question: What about the mutagenic call (Strain/Indicator: TA100, Metabolic Activation: RAT, LIVER, S-9, PHENOBARBITAL AND BETA-NAPHTHOFLAVONE, Method: STANDARD PLATE) of the same molecule?
Answer: inactive; negative

Question: What about the mutagenic call (Strain/Indicator: TA102, Metabolic Activation: NONE, Method: PREINCUBATION) of the same molecule?
Answer: inactive; negative

Question: What about the mutagenic call (Strain/Indicator: TA102, Metabolic Activation: NONE, Method: STANDARD PLATE) of the same molecule?
Answer: inactive; negative

Question: And the mutagenic call (Strain/Indicator: TA102, Metabolic Activation: RAT, LIVER, S-9, PHENOBARBITAL AND BETA-NAPHTHOFLAVONE, Method: PREINCUBATION)?
Answer: inactive; negative

Question: And the mutagenic call (Strain/Indicator: TA102, Metabolic Activation: RAT, LIVER, S-9, PHENOBARBITAL AND BETA-NAPHTHOFLAVONE, Method: STANDARD PLATE)?
Answer: inactive; negative

Question: What about the mutagenic call [5] of the same molecule?
Answer: inactive; negative

Question: And the mutagenic call [6]?
Answer: inactive; negative

Question: What about the mutagenic call (Strain/Indicator: TA1535, Metabolic Activation: RAT, LIVER, S-9, PHENOBARBITAL AND BETA-NAPHTHOFLAVONE, Method: PREINCUBATION) of the same molecule?
Answer: inactive; negative

Question: What about the mutagenic call (Strain/Indicator: TA1535, Metabolic Activation: RAT, LIVER, S-9, PHENOBARBITAL AND BETA-NAPHTHOFLAVONE, Method: STANDARD PLATE) of the same molecule?
Answer: inactive; negative

Question: What about the mutagenic call [7] of the same molecule?
Answer: inactive; negative

Question: And the mutagenic call [8]?
Answer: inactive; negative

Question: What about the mutagenic call (Strain/Indicator: TA1537, Metabolic Activation: RAT, LIVER, S-9, PHENOBARBITAL AND BETA-NAPHTHOFLAVONE, Method: PREINCUBATION) of the same molecule?
Answer: inactive; negative

Question: And the mutagenic call (Strain/Indicator: TA1537, Metabolic Activation: RAT, LIVER, S-9, PHENOBARBITAL AND BETA-NAPHTHOFLAVONE, Method: STANDARD PLATE)?
Answer: inactive; negative

Question: And the mutagenic call (Strain/Indicator: TA1538, Metabolic Activation: NONE, Method: PREINCUBATION)?
Answer: inactive; negative

Question: What about the mutagenic call (Strain/Indicator: TA1538, Metabolic Activation: NONE, Method: STANDARD PLATE) of the same molecule?
Answer: inactive; negative

Question: What about the mutagenic call (Strain/Indicator: TA1538, Metabolic Activation: RAT, LIVER, S-9, PHENOBARBITAL AND BETA-NAPHTHOFLAVONE, Method: PREINCUBATION) of the same molecule?
Answer: inactive; negative

Question: What about the mutagenic call (Strain/Indicator: TA1538, Metabolic Activation: RAT, LIVER, S-9, PHENOBARBITAL AND BETA-NAPHTHOFLAVONE, Method: STANDARD PLATE) of the same molecule?
Answer: inactive; negative

Question: With `CC(=O)[O][Hg][c]1ccccc1` as the molecule, how does the mutagenic call (Strain/Indicator: TA98, Metabolic Activation: HAMSTER, LIVER, S-9, AROCLOR 1254 (10%), Method: PREINCUBATION) read?
Answer: inactive; negative

Question: What about the mutagenic call [1] of the same molecule?
Answer: inactive; negative

Question: What about the mutagenic call (Strain/Indicator: TA98, Metabolic Activation: RAT, LIVER, S-9, AROCLOR 1254 (10%), Method: PREINCUBATION) of the same molecule?
Answer: inactive; negative

Question: And the mutagenic call (Strain/Indicator: TA100, Metabolic Activation: HAMSTER, LIVER, S-9, AROCLOR 1254 (10%), Method: PREINCUBATION)?
Answer: inactive; negative

Question: What about the mutagenic call [3] of the same molecule?
Answer: inactive; negative

Question: What about the mutagenic call (Strain/Indicator: TA100, Metabolic Activation: RAT, LIVER, S-9, AROCLOR 1254 (10%), Method: PREINCUBATION) of the same molecule?
Answer: inactive; negative

Question: What about the mutagenic call (Strain/Indicator: TA1535, Metabolic Activation: HAMSTER, LIVER, S-9, AROCLOR 1254 (10%), Method: PREINCUBATION) of the same molecule?
Answer: inactive; negative

Question: What about the mutagenic call [5] of the same molecule?
Answer: inactive; negative

Question: And the mutagenic call (Strain/Indicator: TA1535, Metabolic Activation: RAT, LIVER, S-9, AROCLOR 1254 (10%), Method: PREINCUBATION)?
Answer: inactive; negative

Question: And the mutagenic call (Strain/Indicator: TA1537, Metabolic Activation: HAMSTER, LIVER, S-9, AROCLOR 1254 (10%), Method: PREINCUBATION)?
Answer: inactive; negative

Question: And the mutagenic call [7]?
Answer: inactive; negative

Question: And the mutagenic call (Strain/Indicator: TA1537, Metabolic Activation: RAT, LIVER, S-9, AROCLOR 1254 (10%), Method: PREINCUBATION)?
Answer: inactive; negative

Question: `Cc1cc2c(c(O)c1O)C(=O)c1c(O)cc(O)cc1C2=O` was tested. Which mutagenic call [2] did it give?
Answer: inactive; negative

Question: And the mutagenic call [4]?
Answer: inactive; negative

Question: And the mutagenic call [6]?
Answer: inactive; negative

Question: And the mutagenic call [8]?
Answer: active; positive

Question: What about the mutagenic call (Strain/Indicator: TA1537, Metabolic Activation: RAT, LIVER, S-9, PCB, Method: STANDARD PLATE) of the same molecule?
Answer: active; positive
